Columns and labels:
mouse neutrophils = assay: Citrullinated histone H3 (CitH3) NET induction in PMA-stimulated mouse neutrophils; format: cell-based
Description: FIGS. 1A-H. Class I/II HDACs drive NET formation • (A and B) Freshly purified human (A) or mouse (B) neutrophils were treated with the indicated HDAC inhibitors at different doses (10, 2, 0.4, 0.08 μM), or with GSK484 (10 μM), for 1 h and then stimulated with 1 μM PMA for 3 h. Cells were fixed and stained with anti-citrullinated histone H3 (CitH3) antibody. NETosis induction was measured as the level of anti-CitH3 fluorescent signal. PMA alone represents 100% of NET induction. “-”: Cells treated with the highest dose of the indicated drug but not activated with PMA. • (C and D) Human neutrophils were treated, or not, with ricolinostat or GSK484 and then stimulated with 1 μM PMA. NETosis induction was measured as area of nuclei stained with DAPI. (C) 3D reconstruction of nuclei in each treatment (grid size 7.8 μm). (D) Quantification of DAPI signal from multiple fields of view (D) (n=9 for unstimulated, not pretreated with any drug [NT] and ricolinostat, n=7 for GSK484). • (E and F) Human neutrophils were treated as in (C-D), and immunoblot analysis of the indicated proteins was performed. Relative quantification of band intensity was analyzed with ImageJ software (F). White violins plots depict the quantification of histone H3 acetylation; red violin plots depict the quantification of histone H3 citrullination. Immunoblot in E is representative of four independent experiments. Gasdermin D NT, gasdermin D N terminal; pMLKL, phospho-MLKL. • (G) Human (left) or murine (right) neutrophils were treated, or not, with ricolinostat (10 μM) and then stimulated with 1 μM PMA for 3 h. ROS production was measured by luminescence with luminol-HRP. Histograms represent the total amount of ROS produced overtime. • (H) Murine neutrophils were treated, or not, with ricolinostat (10 μM) and then stimulated with fluorescent E. coli at the indicated multiplicity of infection (MOI) for 1 h. The histogram represents the percentage of neutrophils positive for E. coli staining. Graphs show mean±SEM. Statistics were calculated using one-way ANOVA (A, B, D) and two-way ANOVA (F, G, H) (*p<0.05; **p<0.01; ****p<0.0001. n.s., not significant). Statistics refers to the comparison with neutrophils stimulated with PMA alone (A, B). […]
FIGS. 5A-J. Class I/II HDACs drive NET formation. • A) Quantification of extracellular DNA released by neutrophils treated, or not, with 1 μM GSK484 for 1 h and then stimulated with 1 μM PMA for 4 hours. […] Extracellular DNA release was assessed in the supernatant 3 hours after PMA stimulation. […] NETosis induction was measured as level of anti-CitH3 fluorescent signal. […] NET induction was measured as in (C). […]

Murine neutrophils = assay: ROS production (luminol-HRP luminescence) in murine neutrophils; format: cell-based, mouse; conditions: ricolinostat 10 μM, 1 μM PMA 3 h; FIG. 1G right
Description: (§1) FIGS. 1A-H. Class I/II HDACs drive NET formation • (A and B) Freshly purified human (A) or mouse (B) neutrophils were treated with the indicated HDAC inhibitors at different doses (10, 2, 0.4, 0.08 μM), or with GSK484 (10 μM), for 1 h and then stimulated with 1 μM PMA for 3 h. Cells were fixed and stained with anti-citrullinated histone H3 (CitH3) antibody. NETosis induction was measured as the level of anti-CitH3 fluorescent signal. PMA alone represents 100% of NET induction. “-”: Cells treated with the highest dose of the indicated drug but not activated with PMA. • (C and D) Human neutrophils were treated, or not, with ricolinostat or GSK484 and then stimulated with 1 μM PMA. NETosis induction was measured as area of nuclei stained with DAPI. (C) 3D reconstruction of nuclei in each treatment (grid size 7.8 μm). (D) Quantification of DAPI signal from multiple fields of view (D) (n=9 for unstimulated, not pretreated with any drug [NT] and ricolinostat, n=7 for GSK484). • (E and F) Human neutrophils were treated as in (C-D), and immunoblot analysis of the indicated proteins was performed. Relative quantification of band intensity was analyzed with ImageJ software (F). White violins plots depict the quantification of histone H3 acetylation; red violin plots depict the quantification of histone H3 citrullination. […] ROS production was measured by luminescence with luminol-HRP. […]

human neutrophils = assay: ROS production (luminol-HRP luminescence) in human neutrophils; format: cell-based; conditions: ricolinostat 10 μM, 1 μM PMA 3 h; FIG. 1G left
Description: as §1

## O=C(CCCCCCNC(=O)c1cnc(N(c2ccccc2)c2ccccc2)nc1)NO [ricolinostat]
Mouse neutrophils; drugs 10, 2, 0.4, 0.08 μM for 1 h, then 1 μM PMA 3 h, FIG. 1B
  release of CitH3 (NET induction): efficiently decreased
Mouse neutrophils; murine neutrophils, PMA, FIG. 5J
  NET formation (level of CitH3): inhibited NET formation to a comparable extent
Murine neutrophils
  reactive oxygen species (ROS) production: did not alter
Human neutrophils
  reactive oxygen species (ROS) production: did not alter

Reference: US20240366594A1, “Small Molecule Inhibitors of Formation of Neutrophil-Derived Extracellular Traps (NETosis) and Uses Thereof” (The Brigham and Women's Hospital, Inc., priority 2021, published 2024)
